ChEMBL document CHEMBL1155693, “Structures of five components of the actinomycin Z complex from Streptomyces fradiae, two of which contain 4-chlorothreonine” (2000)
In brackets after ≈: the same amount, converted by molar mass. *1 amine or outer side, *2 acyl side, *3 side chain or, on linkers, in order; H or OH if unused. Where a SMILES comes first, the peptide text is derived from it. Bridges are numbered along the chain shown (N, C = ends). Roman numbers before positions name the chains, in order. [ ]: non-standard residue; d: D form. Actinocin(1to9) = Cc1c2oc3c(C)ccc(C(=O)[*:2])c3nc-2c(C(=O)[*:1])c(N)c1=O; NMeV = CN[C@H](C(=O)O)C(C)C; Sar = CNCC(=O)O

Columns and labels:
Format in all cases: functional
HepG2 = test: Cytotoxicity against human HepG2 cells after 48 hrs by sulforhodamine assay; conditions: HepG2, 48 h
Bacillus subtilis = test: Antibacterial activity against Bacillus subtilis ATCC 6051 after 18 hrs; conditions: ATCC 6051, 18 h
MCF7 = test: Cytotoxicity against human MCF7 cells after 48 hrs by sulforhodamine assay; conditions: MCF7, 48 h; for CC50: read-out: LC50 (the source's name)
[1] = Cytotoxicity against human HMO2 cells after 48 hrs by sulforhodamine assay; conditions: HMO2, 48 h; for CC50: read-out: LC50 (the source's name)

Cc1c2oc3c(C)ccc(C(=O)N[C@@H]4C(=O)N[C@H](C(C)C)C(=O)N5[C@@H](C)CC[C@H]5C(=O)N(C)CC(=O)N(C)[C@@H](C(C)C)C(=O)O[C@@H]4C)c3nc-2c(C(=O)N[C@@H]2C(=O)N[C@H](C(C)C)C(=O)N3[C@@H](C)C(=O)C[C@H]3C(=O)N(C)CC(=O)N(C)[C@@H](C)C(=O)O[C@H]2CCl)c(N)c1=O [ACTINOMYCIN Z5]
GI50 (HepG2): 1.5 µM | LC50 (HepG2): > 50 µM | TGI (HepG2): 10 µM | MIC (Bacillus subtilis): 0.78 µg/mL (≈ 0.598 µM) | GI50 (MCF7): < 0.1 µM | TGI (MCF7): 0.12 µM | CC50 (MCF7): 0.5 µM | GI50 [1]: < 0.1 µM | TGI [1]: < 0.1 µM | CC50 [1]: 0.5 µM

Cc1c2oc3c(C)ccc(C(=O)N[C@@H]4C(=O)N[C@H](C(C)C)C(=O)N5[C@H](C(=O)N(C)CC(=O)N(C)[C@@H](C(C)C)C(=O)O[C@@H]4C)[C@@H](O)C[C@@H]5C)c3nc-2c(C(=O)N[C@@H]2C(=O)N[C@H](C(C)C)C(=O)N3[C@@H](C)C(=O)C[C@H]3C(=O)N(C)CC(=O)N(C)[C@@H](C)C(=O)O[C@H]2CCl)c(N)c1=O [ACTINOMYCIN Z3]
GI50 (HepG2): < 0.1 µM | LC50 (HepG2): > 50 µM | TGI (HepG2): 1.4 µM | MIC (Bacillus subtilis): 0.2 µg/mL (≈ 0.152 µM) | GI50 (MCF7): < 0.1 µM | TGI (MCF7): < 0.1 µM | CC50 (MCF7): 0.5 µM | GI50 [1]: < 0.1 µM | TGI [1]: < 0.1 µM | CC50 [1]: 0.28 µM

Cc1c2oc3c(C)ccc(C(=O)N[C@@H]4C(=O)N[C@H](C(C)C)C(=O)N5CCC[C@H]5C(=O)N(C)CC(=O)N(C)[C@@H](C(C)C)C(=O)O[C@@H]4C)c3nc-2c(C(=O)N[C@@H]2C(=O)N[C@H](C(C)C)C(=O)N3CCC[C@H]3C(=O)N(C)CC(=O)N(C)[C@@H](C(C)C)C(=O)O[C@@H]2C)c(N)c1=O [DACTINOMYCIN] (I: T[dV]P[Sar][NMeV] / II: T[dV]P[Sar][NMeV]; ester I:1-I:C, II:1-II:C; linker I:N-II:N via Actinocin(1to9))
GI50 (HepG2): 1 µM | TGI (HepG2): 4 µM | MIC (Bacillus subtilis): 0.78 µg/mL (≈ 0.621 µM) | GI50 (MCF7): 0.5 µM | TGI (MCF7): 2.2 µM | CC50 (MCF7): > 50 µM | GI50 [1]: 0.3 µM | TGI [1]: 0.8 µM | CC50 [1]: > 50 µM

Cc1c2oc3c(C)ccc(C(=O)N[C@@H]4C(=O)N[C@H](C(C)C)C(=O)N5[C@H](C(=O)N(C)CC(=O)N(C)[C@@H](C(C)C)C(=O)O[C@@H]4C)[C@@H](O)C[C@@H]5C)c3nc-2c(C(=O)N[C@@H]2C(=O)N[C@H](C(C)C)C(=O)N3[C@@H](C)C(=O)C[C@H]3C(=O)N(C)CC(=O)N(C)[C@@H](C)C(=O)O[C@H]2CO)c(N)c1=O [ACTINOMYCIN Z1]
GI50 (HepG2): 0.95 µM | LC50 (HepG2): > 50 µM | TGI (HepG2): 5.5 µM | MIC (Bacillus subtilis): 12.5 µg/mL (≈ 9.6 µM) | GI50 (MCF7): < 0.5 µM | TGI (MCF7): > 50 µM | CC50 (MCF7): > 50 µM | GI50 [1]: 0.75 µM | TGI [1]: 5.8 µM | CC50 [1]: > 50 µM
